System: HIV-infected subjects
Assay: Safety and tolerability (TEAEs, ECG, laboratory) after repeated oral administration, phase 2a study
Format: in vivo, human
Settings: for Subjects experiencing at least one TEAE: Flank pain / Subjects experiencing at least one TEAE: Headache / Subjects experiencing at least one TEAE: Injury, poisoning, and procedural complications / Subjects experiencing at least one TEAE: Musculoskeletal and connective tissue disorders / Subjects experiencing at least one TEAE: Nausea / Subjects experiencing at least one TEAE: Neck pain / Subjects experiencing at least one TEAE: Nervous system disorders / Subjects experiencing at least one TEAE: Pain in extremity / Subjects experiencing at least one TEAE: Sciatica, back pain / Subjects experiencing at least one TEAE: Skin abrasion / Subjects experiencing at least one TEAE: Total / Subjects experiencing at least one TEAE: Upper abdominal pain / Subjects experiencing at least one TEAE: Vomiting / Subjects experiencing at least one TEAE: Abdominal pain / Subjects experiencing at least one TEAE: Arthralgia / Subjects experiencing at least one TEAE: Back pain / Subjects experiencing at least one TEAE: Diarrhea / Subjects experiencing at least one TEAE: Gastrointestinal disorders: fed
Method: Participants were assigned to one of eight groups; each group (with one exception) included eight subjects receiving either ABX464 (n = 6) or the corresponding placebo (n = 2) according to a randomization code. […] In the present study with HIV-infected subjects, the first dose administered was 25 mg, given once or 3 times a day over a 2- to 3-week period. This initial dose was therefore considered safe for assessment of the safety and tolerability of ABX464 after repeated oral administrations in subjects infected by HIV and determination of the potential effect on the HIV viral load.
The final dosing protocol for each of the eight groups was as follows: group 1, 25 mg every 3 days for 2 to 3 weeks under fasted conditions; group 2, 25 mg once a day (q.d.) for 2 to 3 weeks under fasted conditions; group 3, 50 mg once a day for 2 to 3 weeks under fasted conditions; group 4, 50 mg 3 times a day (t.i.d.) for 4 weeks under fed conditions; group 5, 75 mg once a day for 2 weeks under fed conditions; group 6, 100 mg once a day for 2 to 3 weeks under fasted conditions; group 7, 150 mg every 3 days for 2 to 3 weeks under fed conditions; and group 8, 150 mg once a day for 2 weeks under fed conditions. Per the study protocol, the treatment period was defined as 2 weeks. […] The decision to proceed to the next highest dose was determined by the data and safety monitoring board after review of the laboratory safety data, vital signs, ECGs, and adverse event reports from the group receiving the current dose after 2 weeks of treatment.
Subjects were hospitalized from the day prior to the first dose to at least the morning of day 2. They were orally dosed with 25-mg capsules of ABX464 with 240 ml water under fed or fasted conditions. According to the group, subjects were dosed with 1, 2, 3, 4, or 6 capsules to deliver 25 mg, 50 mg, 75 mg, 100 mg, or 150 mg product, respectively, or the same number of placebo capsules.
Safety assessments and laboratory tests were carried out according to the schedules described in Table S4 for groups dosed every day, every 3 days, and 3 times a day. Follow-up visits were scheduled for 7 days after the last dose and subsequently once every week in order to assess the elimination of the main ABX464 metabolite and to assess the viral load. Follow-up visits were terminated when the virus load was within 0.5 log of the baseline value or after 3 follow-up visits, whichever came first. Prior to the statistical analyses, AEs were coded using the Medical Dictionary for Regulatory Activities (MedDRA dictionary; last available version) in order to be tabulated by system organ class (SOC) and preferred term (PT). The AEs were analyzed according to the treatment emergence phase from the first study drug administration on day 1 up to 48 h after the last study drug administration. The number and percentage of subjects with at least one TEAE were tabulated by SOC and PT for each group and dose. The number of occurrences of TEAEs was also analyzed in the same way by SOC and PT for each group and dose, by grade of severity for each group and dose, and by level of causality to the study drug for each group and dose.

[1] = Group 7 (n = 6), 150 mg every 3 days, Mild
[2] = Group 7 (n = 6), 150 mg every 3 days, Moderate
[3] = Group 8 (n = 6), 150 mg q.d., Mild
[4] = Group 8 (n = 6), 150 mg q.d., Moderate

FC(F)(F)Oc1ccc(Nc2ccc3cccc(Cl)c3n2)cc1 [ABX464]
Subjects experiencing at least one TEAE: Flank pain [1]: 0 (0.0) No. (%)
Subjects experiencing at least one TEAE: Headache [1]: 4 (66.7) No. (%)
Subjects experiencing at least one TEAE: Injury, poisoning, and procedural complications [1]: 0 (0.0) No. (%)
Subjects experiencing at least one TEAE: Musculoskeletal and connective tissue disorders [1]: 1 (16.7) No. (%)
Subjects experiencing at least one TEAE: Nausea [1]: 4 (66.7) No. (%)
Subjects experiencing at least one TEAE: Neck pain [1]: 0 (0.0) No. (%)
Subjects experiencing at least one TEAE: Nervous system disorders [1]: 4 (66.7) No. (%)
Subjects experiencing at least one TEAE: Pain in extremity [1]: 0 (0.0) No. (%)
Subjects experiencing at least one TEAE: Sciatica, back pain [1]: 0 (0.0) No. (%)
Subjects experiencing at least one TEAE: Skin abrasion [1]: 0 (0.0) No. (%)
Subjects experiencing at least one TEAE: Total [1]: 5 (83.3) No. (%)
Subjects experiencing at least one TEAE: Upper abdominal pain [1]: 0 (0.0) No. (%)
Subjects experiencing at least one TEAE: Vomiting [1]: 1 (16.7) No. (%)
Subjects experiencing at least one TEAE: Abdominal pain [2]: 0 (0.0) No. (%)
Subjects experiencing at least one TEAE: Arthralgia [2]: 0 (0.0) No. (%)
Subjects experiencing at least one TEAE: Back pain [2]: 0 (0.0) No. (%)
Subjects experiencing at least one TEAE: Diarrhea [2]: 0 (0.0) No. (%)
Subjects experiencing at least one TEAE: Flank pain [2]: 0 (0.0) No. (%)
Subjects experiencing at least one TEAE: Gastrointestinal disorders [2]: 3 (50.0) No. (%)
Subjects experiencing at least one TEAE: Headache [2]: 3 (50.0) No. (%)
Subjects experiencing at least one TEAE: Injury, poisoning, and procedural complications [2]: 0 (0.0) No. (%)
Subjects experiencing at least one TEAE: Musculoskeletal and connective tissue disorders [2]: 0 (0.0) No. (%)
Subjects experiencing at least one TEAE: Nausea [2]: 3 (50.0) No. (%)
Subjects experiencing at least one TEAE: Neck pain [2]: 0 (0.0) No. (%)
Subjects experiencing at least one TEAE: Nervous system disorders [2]: 4 (66.7) No. (%)
Subjects experiencing at least one TEAE: Pain in extremity [2]: 0 (0.0) No. (%)
Subjects experiencing at least one TEAE: Sciatica, back pain [2]: 0 (0.0) No. (%)
Subjects experiencing at least one TEAE: Skin abrasion [2]: 0 (0.0) No. (%)
Subjects experiencing at least one TEAE: Total [2]: 4 (66.7) No. (%)
Subjects experiencing at least one TEAE: Upper abdominal pain [2]: 0 (0.0) No. (%)
Subjects experiencing at least one TEAE: Vomiting [2]: 3 (50.0) No. (%)
Subjects experiencing at least one TEAE: Abdominal pain [3]: 1 (16.7) No. (%)
Subjects experiencing at least one TEAE: Arthralgia [3]: 0 (0.0) No. (%)
Subjects experiencing at least one TEAE: Back pain [3]: 0 (0.0) No. (%)
Subjects experiencing at least one TEAE: Diarrhea [3]: 0 (0.0) No. (%)
Subjects experiencing at least one TEAE: Flank pain [3]: 0 (0.0) No. (%)
Subjects experiencing at least one TEAE: Gastrointestinal disorders [3]: 6 (100.0) No. (%)
Subjects experiencing at least one TEAE: Headache [3]: 6 (100.0) No. (%)
Subjects experiencing at least one TEAE: Injury, poisoning, and procedural complications [3]: 0 (0.0) No. (%)
Subjects experiencing at least one TEAE: Musculoskeletal and connective tissue disorders [3]: 1 (16.7) No. (%)
Subjects experiencing at least one TEAE: Nausea [3]: 6 (100.0) No. (%)
Subjects experiencing at least one TEAE: Neck pain [3]: 0 (0.0) No. (%)
Subjects experiencing at least one TEAE: Nervous system disorders [3]: 6 (100.0) No. (%)
Subjects experiencing at least one TEAE: Pain in extremity [3]: 1 (16.7) No. (%)
Subjects experiencing at least one TEAE: Sciatica, back pain [3]: 0 (0.0) No. (%)
Subjects experiencing at least one TEAE: Skin abrasion [3]: 0 (0.0) No. (%)
Subjects experiencing at least one TEAE: Total [3]: 6 (100.0) No. (%)
Subjects experiencing at least one TEAE: Upper abdominal pain [3]: 0 (0.0) No. (%)
Subjects experiencing at least one TEAE: Vomiting [3]: 4 (66.7) No. (%)
Subjects experiencing at least one TEAE: Abdominal pain [4]: 0 (0.0) No. (%)
Subjects experiencing at least one TEAE: Arthralgia [4]: 0 (0.0) No. (%)
Subjects experiencing at least one TEAE: Back pain [4]: 0 (0.0) No. (%)
Subjects experiencing at least one TEAE: Diarrhea [4]: 0 (0.0) No. (%)
Subjects experiencing at least one TEAE: Flank pain [4]: 0 (0.0) No. (%)
Subjects experiencing at least one TEAE: Headache [4]: 0 (0.0) No. (%)
Subjects experiencing at least one TEAE: Injury, poisoning, and procedural complications [4]: 1 (16.7) No. (%)
Subjects experiencing at least one TEAE: Musculoskeletal and connective tissue disorders [4]: 0 (0.0) No. (%)
Subjects experiencing at least one TEAE: Nausea [4]: 0 (0.0) No. (%)
Subjects experiencing at least one TEAE: Neck pain [4]: 0 (0.0) No. (%)
Subjects experiencing at least one TEAE: Nervous system disorders [4]: 0 (0.0) No. (%)
Subjects experiencing at least one TEAE: Pain in extremity [4]: 0 (0.0) No. (%)
Subjects experiencing at least one TEAE: Sciatica, back pain [4]: 0 (0.0) No. (%)
Subjects experiencing at least one TEAE: Skin abrasion [4]: 1 (16.7) No. (%)
Subjects experiencing at least one TEAE: Total [4]: 1 (16.7) No. (%)
Subjects experiencing at least one TEAE: Upper abdominal pain [4]: 0 (0.0) No. (%)
Subjects experiencing at least one TEAE: Vomiting [4]: 0 (0.0) No. (%)
Frequency of subjects receiving ABX464 who reported TEAEs (all other groups (4 to 8)): 100%
Subjects with vomiting episodes (group receiving 150 mg ABX464): 66.7%
Changes in laboratory parameters between baseline and posttreatment (in vivo): none of the changes in any laboratory parameter observed between baseline and posttreatment measurements suggested an impact
Electrocardiogram (ECG) parameters (in vivo): no clinically significant abnormalities
Product-related SAEs (in vivo): no product-related SAEs occurred
Subjects reporting upper abdominal pain (overall): 6%
Number of AEs reported (subjects who received the study drug, regardless of the dose or the drug regimen): 158 AEs
Subjects reporting upper abdominal pain (twenty cases, none in placebo): 4 subjects
Overall safety and tolerability (up to 150 mg once a day, HIV-infected subjects): safe and well tolerated
